The test system of experiment [1] is THP1-Dual cells, NF-κB pathway (SEAP). As to the kind of experiment: THP-1 Dual cell SEAP assay (L18-MDP stimulated). Conditions: Homo sapiens, 10 ng/mL L18-MDP, 20-24 h, SEAP readout, read-out: IFNγ THP1 IC50. Format: cell-based. In outline:
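About 25,000 THP1-Dual cells per well were preincubated 30 min with serially diluted compound, then stimulated overnight (20-24 h, 37 °C) with 10 ng/mL L18-MDP (final). NF-κB-driven SEAP in supernatant was read with QUANTI-Blue at OD 620-655 nm after 2 h; % inhibition versus DMSO/L18-MDP wells was fitted by non-linear regression to give IC50.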

In another experiment the target is T1, RIPK2 (KD)/XIAP (BIR2) (Homo sapiens, UniProt O43353).
T1 construct: made in house; host or cells: baculovirus-infected Sf9 cells
As to the kind of experiment: RIPK2-XIAP binding competition PPI assay (TR-FRET). The conditions noted are these: for Emax: 50 nM of GSK583 = -100% activity, read-out: PPI Amax; for IC50: GST-RIPK2 / His-XIAP (BIR2)-avi, 120 min at 23° C. The method, boiled down: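 TR-FRET competition between GST-RIPK2 (aa 1-310, 1 nM) and His-XIAP BIR2-avi (aa 152-231, 25 nM), both Sf9-expressed, detected with anti-His-XL665 and anti-GST-Tb in Tris pH 7.5 buffer with MgCl2, DTT and vanadate. Incubation was 120 min at 23 °C; the 665/520 nm ratio was normalized to no inhibitor (0%) and 50 nM GSK583 (−100%).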
For orientation: Time-resolved FRET reads energy transfer from a long-lived donor to a nearby acceptor.

Experiment [2] deals with T2, GST-RIPK2 fusion protein (human RIPK2 amino acids 1-310) (Homo sapiens, UniProt O43353).
T2 construct: made in house; host or cells: baculovirus-infected Sf9 cells
The experiment can be described thus: RIPK2 binding competition assay (TR-FRET, Tracer 199). Conditions: displacement of Tracer 199 (10 nM), 45 min at 22° C. The text has this:
The ability of selected compounds of Formulas (I) and (II) to inhibit the binding of an Alexa647-labelled ATP-competitive kinase inhibitor to a GST-RIPK2 fusion protein was quantified employing the TR-FRET-based RIPK2 binding competition assay as described in the following paragraphs.
Recombinant fusion protein of N-terminal Glutathione-S-Transferase (GST) and a fragment of human RIPK2 (amino acids 1-310 of accession number 043353), expressed in baculovirus infected Sf9 cells, purified via glutathione affinity chromatography, was used as GST-RIPK2 fusion protein. Tracer 199 from Life Technologies (catalogue no. PR9115B) was used as Alexa647-labelled ATP-competitive kinase inhibitor.
For the assay, 50 nL of a 100-fold concentrated solution of each test compound in DMSO was pipetted into either a black low volume 384-well microtiter plate or a black 1536-well microtiter plate (both Greiner Bio-One, Frickenhausen, Germany), 3 μL solution of Tracer 199 (16.7 nM=>final concentration in 5 μL assay volume is 10 nM) in aqueous assay buffer (25 mM Tris/HCl pH 7.5, 10 mM magnesium chloride (MgCl2), 5 mM β-glycerophosphate, 2.5 mM dithiothreitol (DTT), 0.5 mM ethylene glycol-bis(2-aminoethylether)-N,N,N′,N′-tetraacetic acid (EGTA), 0.5 mM sodium ortho-vanadate, 0.01% (w/v) bovine serum albumin (BSA), 0.005% (w/v) Pluronic F-127 (Sigma)) were added. Then the binding competition was started by the addition of 2 μL of a solution of the GST-RIPK2 fusion protein (2.5 nM=>final conc. in the 5 μL assay volume is 1 nM) and of Anti-GST-Tb (1.25 nM=>final conc. in the 5 μL assay volume is 0.5 nM), a Lumi4®—Tb cryptate-conjugated anti-GST antibody from PerkinElmer (catalogue no 61GSTTAH), in assay buffer.
The resulting mixture was incubated 45 min at 22° C. to allow the formation of a complex between the Tracer 199, the fusion protein and Anti-GST-Tb. Subsequently, the amount of this complex was evaluated by measurement of the resonance energy transfer from the Tb-cryptate to the Tracer 199. Therefore, the fluorescence emissions at 620 nm and 665 nm after excitation at 337 nm were measured in a TR-FRET reader, e.g. a Pherastar FS(BMG Labtechnologies, Offenburg, Germany) or a Viewlux (PerkinElmer). The ratio of the emissions at 665 nm and at 620 nm was taken as the measure of the amount of the complex. The data were normalized (assay reaction without inhibitor=0% activity, all other assay components but no GST-RIPK2 fusion protein=−100% activity).

This is an account of results in patent publication US20260091026A1, “METHODS OF TREATING INFLAMMATORY DISEASES” (INTERLINE THERAPEUTICS, INC., priority 2023, published 2026).

One may read the IC50 as the point on the concentration scale where inhibition reaches its midpoint.

T1 sequence (O43353 1-310): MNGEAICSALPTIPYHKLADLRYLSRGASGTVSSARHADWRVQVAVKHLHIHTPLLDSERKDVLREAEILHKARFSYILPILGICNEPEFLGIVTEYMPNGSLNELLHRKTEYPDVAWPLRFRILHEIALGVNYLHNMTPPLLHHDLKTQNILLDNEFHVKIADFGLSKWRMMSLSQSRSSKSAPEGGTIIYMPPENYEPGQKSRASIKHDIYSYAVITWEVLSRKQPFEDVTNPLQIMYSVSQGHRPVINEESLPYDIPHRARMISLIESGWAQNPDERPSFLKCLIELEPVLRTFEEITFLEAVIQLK
T2 sequence (O43353 1-310): as above

In the case of `COc1cc2ncc(-n3cc(NC(=O)Cc4ccc(F)cc4Cl)cn3)n2cc1S(=O)(=O)C(C)(C)C` [Example 158, N-(1-(6-(tert-butylsulfonyl)-7-methoxyimidazo[1,2-a]pyridin-3-yl)-1H-pyrazol-4-yl)-2-(2-chloro-4-fluorophenyl)acetamide], the IC50 in experiment [1] is greater than 2500 nM; on RIPK2 (KD)/XIAP (BIR2) it was greater than 1000 nM; in experiment [2] it was 500 to 1000 nM. On RIPK2 (KD)/XIAP (BIR2), the Emax was no less than 80%.
For `COc1cc2ncc(-n3cc(NC(=O)Cc4c(F)cccc4Cl)cn3)n2cc1S(=O)(=O)C(C)(C)C` [Example 159, N-(1-(6-(tert-butylsulfonyl)-7-methoxyimidazo[1,2-a]pyridin-3-yl)-1H-pyrazol-4-yl)-2-(2-chloro-6-fluorophenyl)acetamide] the same measures were 500 to 2500 nM, 100 to 1000 nM, less than 200 nM and no less than 80%.
With `COc1cc2ncc(-n3cc(NC(=O)Cc4ccccc4)cn3)n2cc1S(=O)(=O)C(C)(C)C` [Example 160, N-(1-(6-(tert-butylsulfonyl)-7-methoxyimidazo[1,2-a]pyridin-3-yl)-1H-pyrazol-4-yl)-2-phenylacetamide], the IC50 is greater than 2500 nM in experiment [1], 100 to 1000 nM at RIPK2 (KD)/XIAP (BIR2) and 200 to 500 nM in experiment [2]. On RIPK2 (KD)/XIAP (BIR2), the Emax was no less than 80%.
With `COc1cc2ncc(-n3cc(NC(=O)[C@H](C)c4ccccc4)cn3)n2cc1S(=O)(=O)C(C)(C)C` [Example 161, (R)-N-(1-(6-(tert-butylsulfonyl)-7-methoxyimidazo[1,2-a]pyridin-3-yl)-1H-pyrazol-4-yl)-2-phenylpropanamide], the IC50 in experiment [1] is greater than 2500 nM; on RIPK2 (KD)/XIAP (BIR2), 100 to 1000 nM; in experiment [2], 200 to 500 nM. Further, the Emax at RIPK2 (KD)/XIAP (BIR2) was no less than 80%.
For `COc1cc2ncc(-n3cc(NC(=O)[C@@H](C)c4ccccc4)cn3)n2cc1S(=O)(=O)C(C)(C)C` [Example 162, (S)-N-(1-(6-(tert-butylsulfonyl)-7-methoxyimidazo[1,2-a]pyridin-3-yl)-1H-pyrazol-4-yl)-2-phenylpropanamide], the figures for the IC50 (in experiment [1]; on RIPK2 (KD)/XIAP (BIR2); in experiment [2]) were greater than 2500 nM, greater than 1000 nM and 500 to 1000 nM, respectively. At RIPK2 (KD)/XIAP (BIR2), the Emax is no less than 80%.
As to `COc1cc2ncc(-n3cc(NC(=O)C4CC4)cn3)n2cc1S(=O)(=O)C(C)(C)C` [Example 163, N-(1-(6-(tert-butylsulfonyl)-7-methoxyimidazo[1,2-a]pyridin-3-yl)-1H-pyrazol-4-yl)cyclopropanecarboxamide], the IC50 was greater than 2500 nM in experiment [1], greater than 1000 nM at RIPK2 (KD)/XIAP (BIR2) and greater than 1000 nM in experiment [2]. Further, the Emax at RIPK2 (KD)/XIAP (BIR2) was no more than 30%.
`COc1cc2ncc(-n3cc(NC(=O)C4CCCCC4)cn3)n2cc1S(=O)(=O)C(C)(C)C` [Example 164, N-(1-(6-(tert-butylsulfonyl)-7-methoxyimidazo[1,2-a]pyridin-3-yl)-1H-pyrazol-4-yl)cyclohexanecarboxamide]: the IC50 in experiment [1] was greater than 2500 nM; on RIPK2 (KD)/XIAP (BIR2), greater than 1000 nM; in experiment [2], greater than 1000 nM. Besides, the Emax on RIPK2 (KD)/XIAP (BIR2) is no less than 80%.
`COc1cc2ncc(-n3cc(NC(=O)C4CCC(F)(F)CC4)cn3)n2cc1S(=O)(=O)C(C)(C)C` [Example 165, N-(1-(6-(tert-butylsulfonyl)-7-methoxyimidazo[1,2-a]pyridin-3-yl)-1H-pyrazol-4-yl)-4,4-difluorocyclohexane-1-carboxamide]: the IC50 is greater than 2500 nM in experiment [1], greater than 1000 nM at RIPK2 (KD)/XIAP (BIR2) and greater than 1000 nM in experiment [2]. Further, the Emax at RIPK2 (KD)/XIAP (BIR2) was 55 to 80%.
`COc1cc2ncc(-n3cc(NC(=O)[C@@H](c4ccccc4)N(C)C)cn3)n2cc1S(=O)(=O)C(C)(C)C` [Example 166, (R)-N-(1-(6-(tert-butylsulfonyl)-7-methoxyimidazo[1,2-a]pyridin-3-yl)-1H-pyrazol-4-yl)-2-(dimethylamino)-2-phenylacetamide]: the figures for the IC50 (in experiment [1]; at RIPK2 (KD)/XIAP (BIR2); in experiment [2]) were greater than 2500 nM, greater than 1000 nM and greater than 1000 nM, respectively. At RIPK2 (KD)/XIAP (BIR2), the Emax is no less than 80%.
Take `COc1cc2ncc(-n3cc(NC(=O)CC4CCCCC4)cn3)n2cc1S(=O)(=O)C(C)(C)C` [Example 167, N-(1-(6-(tert-butylsulfonyl)-7-methoxyimidazo[1,2-a]pyridin-3-yl)-1H-pyrazol-4-yl)-2-cyclohexylacetamide]: the IC50 was greater than 2500 nM in experiment [1], greater than 1000 nM at RIPK2 (KD)/XIAP (BIR2) and greater than 1000 nM in experiment [2]. Also, the Emax on RIPK2 (KD)/XIAP (BIR2) was no less than 80%.
For `COc1cc2ncc(-n3cc(NC(=O)[C@@H]4C[C@H]4c4ccccc4)cn3)n2cc1S(=O)(=O)C(C)(C)C` [Example 168, (1R,2R)-N-(1-(6-(tert-butylsulfonyl)-7-methoxyimidazo[1,2-a]pyridin-3-yl)-1H-pyrazol-4-yl)-2-phenylcyclopropane-1-carboxamide], the results for the IC50 (in experiment [1]; at RIPK2 (KD)/XIAP (BIR2); in experiment [2]) were greater than 2500 nM, greater than 1000 nM and greater than 1000 nM, respectively. Further, at RIPK2 (KD)/XIAP (BIR2), the Emax is no less than 80%.
`COc1cc2ncc(-n3cc(NC(=O)C4(F)CCCCC4)cn3)n2cc1S(=O)(=O)C(C)(C)C` [Example 169, N-(1-(6-(tert-butylsulfonyl)-7-methoxyimidazo[1,2-a]pyridin-3-yl)-1H-pyrazol-4-yl)-1-fluorocyclohexane-1-carboxamide]: the IC50 in experiment [1] was greater than 2500 nM; on RIPK2 (KD)/XIAP (BIR2) it was greater than 1000 nM; in experiment [2], 200 to 500 nM. In addition, the Emax on RIPK2 (KD)/XIAP (BIR2) was no less than 80%.
Regarding `COc1cc2ncc(-n3cc(NC(=O)c4ccccc4)cn3)n2cc1S(=O)(=O)C(C)(C)C` [Example 170, N-(1-(6-(tert-butylsulfonyl)-7-methoxyimidazo[1,2-a]pyridin-3-yl)-1H-pyrazol-4-yl)benzamide], the values for the IC50 (in experiment [1]; at RIPK2 (KD)/XIAP (BIR2); in experiment [2]) were greater than 2500 nM, greater than 1000 nM and greater than 1000 nM, respectively. The Emax on RIPK2 (KD)/XIAP (BIR2) lay in the range of 55 to 80%.
As to `COc1cc2ncc(-n3cc(NC(=O)[C@H]4C[C@H]4c4ccccc4)cn3)n2cc1S(=O)(=O)C(C)(C)C` [Example 171, (1S,2R)-N-(1-(6-(tert-butylsulfonyl)-7-methoxyimidazo[1,2-a]pyridin-3-yl)-1H-pyrazol-4-yl)-2-phenylcyclopropane-1-carboxamide], the IC50 in experiment [1] is 500 to 2500 nM; on RIPK2 (KD)/XIAP (BIR2), 100 to 1000 nM; in experiment [2], less than 200 nM. The Emax on RIPK2 (KD)/XIAP (BIR2) was no less than 80%.
Take `COc1cc2ncc(-n3cc(NC(=O)[C@H]4CC[C@@H](O)CC4)cn3)n2cc1S(=O)(=O)C(C)(C)C` [Example 172, (1s,4s)-N-(1-(6-(tert-butylsulfonyl)-7-methoxyimidazo[1,2-a]pyridin-3-yl)-1H-pyrazol-4-yl)-4-hydroxycyclohexane-1-carboxamide]: the figures for the IC50 (in experiment [1]; on RIPK2 (KD)/XIAP (BIR2); in experiment [2]) were greater than 2500 nM, greater than 1000 nM and greater than 1000 nM, respectively. In addition, the Emax at RIPK2 (KD)/XIAP (BIR2) lay in the range of 30 to 55%.
With `COc1cc2ncc(-n3cc(N(C)C(=O)Cc4ccccc4Cl)cn3)n2cc1S(=O)(=O)C(C)(C)C` [Example 173, N-(1-(6-(tert-butylsulfonyl)-7-methoxyimidazo[1,2-a]pyridin-3-yl)-1H-pyrazol-4-yl)-2-(2-chlorophenyl)-N-methylacetamide], the IC50 is greater than 2500 nM in experiment [1], greater than 1000 nM on RIPK2 (KD)/XIAP (BIR2) and greater than 1000 nM in experiment [2]. The Emax at RIPK2 (KD)/XIAP (BIR2) was no less than 80%.
